# In BindingDB's records for doi:10.1016/j.bmcl.2003.12.105 (Ucb Pharma, 2004):
# What was measured:
# [1] = Inhibition of [3H](+)-pentazocine binding to Sigma receptor type 1
# [2] = as above; remark: listed apart in the source
Compound,Ki [1] [nM],Ki [2] [nM]
"COc1ccc2c(c1)[C@]1(CCN(C)CCO)CCCC[C@@H]1C=C2 [2-{[2-((4aS,10aR)-6-Methoxy-1,3,4,10a-tetrahydro-2H-phenanthren-4a-yl)-ethyl]-methyl-amino}-ethanol]",161,–
"COc1ccc2c(c1)[C@]1(CCN(C)CCOCc3ccccc3)CCCC[C@@H]1C=C2 [(2-Benzyloxy-ethyl)-[2-((4aS,10aR)-6-methoxy-1,3,4,10a-tetrahydro-2H-phenanthren-4a-yl)-ethyl]-methyl-amine; compound with GENERIC INORGANIC NEUTRAL COMPONENT]",241,–
"COCCN(C)CC[C@@]12CCCC[C@@H]1C=Cc1ccc(OC)cc12 [(2-Methoxy-ethyl)-[2-((4aS,10aR)-6-methoxy-1,3,4,10a-tetrahydro-2H-phenanthren-4a-yl)-ethyl]-methyl-amine; compound with GENERIC INORGANIC NEUTRAL COMPONENT]",49,–
"C=CCN(C)CC[C@@]12CCCC[C@@H]1C=Cc1ccc(OC)cc12 [Allyl-[2-((4aS,10aR)-6-methoxy-1,3,4,10a-tetrahydro-2H-phenanthren-4a-yl)-ethyl]-methyl-amine; compound with GENERIC INORGANIC NEUTRAL COMPONENT]",49,–
COc1ccc2c(c1)[C@]13CCCC[C@@H]1[C@H](C2)N(C)CC3 [DEXTROMETHORPHAN],348,–
"COc1ccc2c(c1)[C@]1(CC[N+](C)(C)C(=O)OC(C)(C)C)CCCC[C@@H]1C=C2 [N-{2-[(4aS,10aR)-6-methoxy-1,2,3,4,4a,10a-hexahydrophenanthren-4a-yl]ethyl}-1-(tert-butoxy)-N,N-dimethylcarbonyl{2-[(4aS,10aR)-6-methoxy-1,2,3,4,4a,10a-hexahydrophenanthren-4a-yl]ethyl}dimethylazanium]",> 3300,–
"COc1ccc2c(c1)[C@]1(CCN(C)C)CCCC[C@@H]1C=C2 [[2-((4aS,10aR)-6-Methoxy-1,3,4,10a-tetrahydro-2H-phenanthren-4a-yl)-ethyl]-dimethyl-amine; compound with GENERIC INORGANIC NEUTRAL COMPONENT]",245,–
"CNCC[C@@]12CCCC[C@@H]1C=Cc1ccc(OC)cc12 [[2-((4aS,10aR)-6-Methoxy-1,3,4,10a-tetrahydro-2H-phenanthren-4a-yl)-ethyl]-methyl-amine]",456,–
"CCOC(=O)N(C)CC[C@@]12CCCC[C@@H]1C=Cc1ccc(OC)cc12 [[2-((4aS,10aR)-6-Methoxy-1,3,4,10a-tetrahydro-2H-phenanthren-4a-yl)-ethyl]-methyl-carbamic acid ethyl ester]",> 3300,–
"CN(CC[C@]12CCCC[C@H]1C=Cc1ccc(OCC(=O)OC(C)(C)C)cc12)CC(=O)OC(C)(C)C [{(4bR,8aS)-4b-[2-(tert-Butoxycarbonylmethyl-methyl-amino)-ethyl]-4b,5,6,7,8,8a-hexahydro-phenanthren-3-yloxy}-acetic acid tert-butyl ester]",115,–
"CN(CC[C@@]12CCCC[C@@H]1C=Cc1ccc(OCC(=O)OC(C)(C)C)cc12)CC(=O)OC(C)(C)C [{(4bS,8aR)-4b-[2-(tert-Butoxycarbonylmethyl-methyl-amino)-ethyl]-4b,5,6,7,8,8a-hexahydro-phenanthren-3-yloxy}-acetic acid tert-butyl ester]",14,–
"COc1ccc2c(c1)[C@]1(CCN(C)CC(=O)OC(C)(C)C)CCCC[C@@H]1C=C2 [{[2-((4aS,10aR)-6-Methoxy-1,3,4,10a-tetrahydro-2H-phenanthren-4a-yl)-ethyl]-methyl-amino}-acetic acid tert-butyl ester; compound with GENERIC INORGANIC NEUTRAL COMPONENT]",37,373
